# Data as given in doi:10.1101/801928v2 (biorxiv, 2019).
# Molecular target: T1, HmtS (Streptomyces himastatinicus, UniProt G0LWB2)
# T1 sequence (G0LWB2 2-397): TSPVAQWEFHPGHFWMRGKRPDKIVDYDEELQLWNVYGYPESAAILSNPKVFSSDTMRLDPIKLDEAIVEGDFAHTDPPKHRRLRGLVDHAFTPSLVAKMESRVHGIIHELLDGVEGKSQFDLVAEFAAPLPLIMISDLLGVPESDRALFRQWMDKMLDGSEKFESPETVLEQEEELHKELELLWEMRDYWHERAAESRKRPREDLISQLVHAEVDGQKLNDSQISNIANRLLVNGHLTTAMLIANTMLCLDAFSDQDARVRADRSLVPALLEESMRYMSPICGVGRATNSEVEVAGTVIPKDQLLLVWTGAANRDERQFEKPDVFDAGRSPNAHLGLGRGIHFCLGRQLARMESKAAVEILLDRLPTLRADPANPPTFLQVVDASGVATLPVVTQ
# Experiment: microscale thermophoresis, NT647-labelled enzyme
# Assay type: binding
row,Kd,Structure (SMILES)
1,43 µM,Cc1cc2nc3c(=O)[nH]c(=O)nc-3n(C[C@H](O)[C@H](O)[C@H](O)COP(=O)(O)OP(=O)(O)OC[C@H]3O[C@@H](n4cnc5c(N)ncnc54)[C@H](O)[C@@H]3O)c2cc1C [FAD]
2,40 µM,Cc1cc2nc3c(=O)[nH]c(=O)nc-3n(C[C@H](O)[C@H](O)[C@H](O)COP(=O)(O)O)c2cc1C [FMN]
3,83 µM,NC(=O)C1=CN([C@@H]2O[C@H](COP(=O)(O)OP(=O)(O)OC[C@H]3O[C@@H](n4cnc5c(N)ncnc54)[C@H](OP(=O)(O)O)[C@@H]3O)[C@@H](O)[C@H]2O)C=CC1 [NADPH]
4,1.9 µM,Cc1cc2nc3c(=O)[nH]c(=O)nc-3n(C[C@H](O)[C@H](O)[C@H](O)CO)c2cc1C [riboflavin]
